Assay results reported in US20250101003A1, “SPIROCYCLIC CAV2.3 ANTAGONISTS” (LARIO THERAPEUTICS LIMITED, priority 2021, published 2025).

Legend:
[1] = biological target: T1, Cav2.3 (Homo sapiens, UniProt Q15878); assay: Human Cav2.3 channel calcium-influx assay; format: cell-based; settings: HEK-293 T-Rex/Kir2.1/Cav2.3e-β4-α2δ1 cells, Fluo8 fluorescence, without pluronic acid; read-out: Cav2.3 (pIC50) (converted)
Outline: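 Doxycycline-induced HEK-293 T-Rex/Kir2.1 clone stably expressing Cav2.3e with β4-α2δ1, loaded with Fluo8 NW; compounds (8 points from 30 μM, half-log, 0.3% DMSO) preincubated 3 min at RT. Depolarized with 20 mM KCl/2 mM CaCl2; peak-minus-baseline fluorescence over 130 s normalized to neutral and inhibitor controls as % activity.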
Target sequence in this assay (Q15878 1-747 limits assumed): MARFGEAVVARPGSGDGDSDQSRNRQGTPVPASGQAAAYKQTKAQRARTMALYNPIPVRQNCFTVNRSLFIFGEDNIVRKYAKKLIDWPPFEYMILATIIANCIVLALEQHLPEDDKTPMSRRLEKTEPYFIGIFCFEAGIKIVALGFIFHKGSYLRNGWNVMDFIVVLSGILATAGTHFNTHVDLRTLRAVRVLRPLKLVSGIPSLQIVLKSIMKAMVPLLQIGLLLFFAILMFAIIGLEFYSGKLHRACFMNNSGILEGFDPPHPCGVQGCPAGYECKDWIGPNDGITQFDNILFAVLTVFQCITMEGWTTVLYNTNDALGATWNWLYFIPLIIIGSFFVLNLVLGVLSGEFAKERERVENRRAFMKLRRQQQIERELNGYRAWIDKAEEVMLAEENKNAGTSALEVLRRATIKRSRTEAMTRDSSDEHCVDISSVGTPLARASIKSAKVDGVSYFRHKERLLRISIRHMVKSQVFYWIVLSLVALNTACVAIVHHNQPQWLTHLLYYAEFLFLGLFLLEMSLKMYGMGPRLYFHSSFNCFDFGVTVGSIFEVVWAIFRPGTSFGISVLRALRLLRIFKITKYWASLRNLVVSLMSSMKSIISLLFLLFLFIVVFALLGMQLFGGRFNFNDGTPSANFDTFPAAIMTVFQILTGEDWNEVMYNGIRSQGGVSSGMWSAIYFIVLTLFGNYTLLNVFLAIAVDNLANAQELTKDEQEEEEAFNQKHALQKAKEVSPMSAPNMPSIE
Target sequence in this assay (Q15878 1126-2313 limits assumed): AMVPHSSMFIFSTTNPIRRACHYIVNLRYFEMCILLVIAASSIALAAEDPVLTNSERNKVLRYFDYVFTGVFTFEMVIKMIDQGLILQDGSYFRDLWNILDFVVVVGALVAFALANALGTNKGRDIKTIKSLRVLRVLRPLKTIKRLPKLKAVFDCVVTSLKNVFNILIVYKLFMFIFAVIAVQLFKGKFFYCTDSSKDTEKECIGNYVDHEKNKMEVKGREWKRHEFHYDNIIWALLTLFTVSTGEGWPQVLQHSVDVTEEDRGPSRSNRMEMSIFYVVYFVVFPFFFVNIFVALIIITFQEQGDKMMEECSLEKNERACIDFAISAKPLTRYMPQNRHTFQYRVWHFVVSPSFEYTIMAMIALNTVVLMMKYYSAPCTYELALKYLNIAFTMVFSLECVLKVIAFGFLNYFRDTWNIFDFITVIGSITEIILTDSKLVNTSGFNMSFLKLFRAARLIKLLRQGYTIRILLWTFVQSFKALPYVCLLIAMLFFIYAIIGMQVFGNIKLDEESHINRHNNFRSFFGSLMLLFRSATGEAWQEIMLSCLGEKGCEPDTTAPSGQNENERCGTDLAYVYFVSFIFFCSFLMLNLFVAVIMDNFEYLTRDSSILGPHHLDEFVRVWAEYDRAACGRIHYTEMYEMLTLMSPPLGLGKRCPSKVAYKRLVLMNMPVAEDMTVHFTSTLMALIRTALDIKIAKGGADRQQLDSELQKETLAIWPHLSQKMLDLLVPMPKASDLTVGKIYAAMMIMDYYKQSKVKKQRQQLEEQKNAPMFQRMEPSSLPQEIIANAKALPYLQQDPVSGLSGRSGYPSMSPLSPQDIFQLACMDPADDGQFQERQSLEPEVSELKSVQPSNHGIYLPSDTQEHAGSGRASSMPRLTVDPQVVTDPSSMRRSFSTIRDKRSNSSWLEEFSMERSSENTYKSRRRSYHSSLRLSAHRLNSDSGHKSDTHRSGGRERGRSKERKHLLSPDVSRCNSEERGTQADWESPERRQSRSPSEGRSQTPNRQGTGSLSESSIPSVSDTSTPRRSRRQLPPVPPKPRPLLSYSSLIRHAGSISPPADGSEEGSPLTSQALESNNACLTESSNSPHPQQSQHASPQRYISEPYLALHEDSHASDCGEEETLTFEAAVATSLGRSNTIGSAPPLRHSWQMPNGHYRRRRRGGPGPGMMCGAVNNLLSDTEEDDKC

[2] = biological target: T1, Cav2.3; assay: Whole-cell patch clamp assay (QPatch 16X); format: cell-based; settings: whole-cell voltage clamp, HEK-293 T-Rex/Kir2.1/Cav2.3e-β4-α2δ1 cells, room temperature; read-out: Cav2.3 (pIC50) (converted)
Method: HEK-293 T-Rex/Kir2.1/Cav2.3e-β4-α2δ1 cells were seeded 96 hours before experiment and doxycycline at 0.2 μg/mL was added 24 hours before experiment. Just before the experiments cells were washed twice with D-PBS w/o Ca2+/Mg2+ and gently detached from the flask with Detachin. Cells were then re-suspended in the suspension solution (25 mL EX-CELL ACF CHO medium; 0.25 mL of 100× Penicillin/Streptomycin) and placed on the Automated Patch-clamp platform (QPatch 16X).
Standard whole-cell voltage clamp experiments were performed at room temperature using the single hole technology and the following intracellular and extracellular solutions (ICS and ECS, respectively) were used. ICS (mM): CsF 60, CsCl 50, NaCl 10, EGTA 20, BAPTA 5, HEPES 10, NaGTP 0.3, MgATP 5 (pH 7.2; ECS (mM): NMDG-Cl 120, BaCl2 20, HEPES 10, EGTA 7 (pH 7.4). After establishment of the seal and the passage in the whole-cell configuration, the Cav2.3 dependent current was evoked by challenging the cells with the following voltage protocol: the plasma membrane was held at −80 mV then a 50 ms-long depolarizing pulse at 0 mV, followed by a 50 ms-long hyperpolarizing pulse at −100 mV were applied and finally the plasma membrane was held back to −80 mV. This voltage protocol was applied every 10 seconds. Cav2.3 dependent current was first measured in control condition (vehicle, 0.1% DMSO), in the presence of increasing concentration of the compound under investigation and finally SNX 482 was added to fully block any R-type Cav2.3 dependent current.
For data collection, the Sophion proprietary software was used while the analysis was performed off-line using Excel and GraphPad Prism. The inward current (Area Under Curve) measured during each depolarizing pulse was normalized to cell membrane capacitance (Cm) to obtain the average inward current density in each condition (control, compound under investigation and SNX 482). Then, the inhibitory effect of the compound under investigation was evaluated as % of the remaining inward current, normalized to the internal control. […] All data were expressed as mean±S.E
Target sequence in this assay (Q15878 1-747 limits assumed): as the sequence (Q15878 1-747 limits assumed) above
Target sequence in this assay (Q15878 1126-1966 limits assumed): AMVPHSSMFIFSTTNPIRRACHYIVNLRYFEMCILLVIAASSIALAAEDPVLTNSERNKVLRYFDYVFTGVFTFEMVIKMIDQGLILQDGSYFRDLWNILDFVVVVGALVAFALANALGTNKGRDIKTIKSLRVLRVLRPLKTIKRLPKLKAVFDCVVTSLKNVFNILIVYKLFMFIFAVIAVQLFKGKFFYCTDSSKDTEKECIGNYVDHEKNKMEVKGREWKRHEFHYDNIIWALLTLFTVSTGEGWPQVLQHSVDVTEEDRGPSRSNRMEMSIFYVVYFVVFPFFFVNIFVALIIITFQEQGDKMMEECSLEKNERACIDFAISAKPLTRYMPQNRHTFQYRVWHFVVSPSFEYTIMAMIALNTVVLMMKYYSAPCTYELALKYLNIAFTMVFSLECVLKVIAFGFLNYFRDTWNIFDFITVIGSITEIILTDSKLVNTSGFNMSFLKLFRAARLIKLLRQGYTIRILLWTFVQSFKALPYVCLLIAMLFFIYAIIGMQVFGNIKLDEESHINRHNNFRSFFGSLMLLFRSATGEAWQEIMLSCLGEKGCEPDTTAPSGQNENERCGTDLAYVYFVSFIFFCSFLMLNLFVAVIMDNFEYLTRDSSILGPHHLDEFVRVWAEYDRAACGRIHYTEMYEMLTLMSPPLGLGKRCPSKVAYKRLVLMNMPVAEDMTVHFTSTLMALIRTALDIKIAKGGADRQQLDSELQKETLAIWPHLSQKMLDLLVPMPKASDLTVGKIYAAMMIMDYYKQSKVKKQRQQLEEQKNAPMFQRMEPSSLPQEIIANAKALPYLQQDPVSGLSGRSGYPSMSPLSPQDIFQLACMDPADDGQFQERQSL

| SMILES | IC50 [1] [nM] | IC50 [2] [nM] |
| --- | --- | --- |
| CCOC(=O)N1CCc2ccc(S(=O)(=O)N3CC4(CCC4)CC3C)cc2C1 (single isomer, unassigned) [Example 23, Ethyl 7-((7-methyl-6-azaspiro[3.4]octan-6-yl)sulfonyl)-3,4-dihydroisoquinoline-2(1H)-carboxylate] | 501 | 832 |
| CC1CC2(CCC2)CN1S(=O)(=O)c1ccc2c(c1)CN(C(=O)c1ccccc1)CC2 (stereo not shown) [Example 26, (7-((7-Methyl-6-azaspiro[3.4]octan-6-yl)sulfonyl)-3,4-dihydroisoquinolin-2(1H)-yl)(phenyl)methanone] | 1100 | 525 |
| CCOC(=O)N1CCc2ccc(S(=O)(=O)N3CC4(CCC4)CC3C)cc2C1 (stereo not shown) [Example 22, Ethyl 7-((7-methyl-6-azaspiro[3.4]octan-6-yl)sulfonyl)-3,4-dihydroisoquinoline-2(1H)-carboxylate] | 741 | 759 |
| CC1CC2(CCC2)CN1S(=O)(=O)c1ccc2c(c1)CN(C(=O)Cc1ccccc1)CC2 (stereo not shown) [Example 21, 1-(7-((7-Methyl-6-azaspiro[3.4]octan-6-yl)sulfonyl)-3,4-dihydroisoquinolin-2(1H)-yl)-2-phenylethan-1-one] | 955 | 933 |
| CC1CC2(CCC2)CN1S(=O)(=O)c1ccc2c(c1)CN(C(=O)c1ccccc1)CC2 (single isomer, unassigned) [Example 27, (7-((7-Methyl-6-azaspiro[3.4]octan-6-yl)sulfonyl)-3,4-dihydroisoquinolin-2(1H)-yl)(phenyl)methanone] | 851 | 832 |
| CCC1CC2(CCC2)CN1S(=O)(=O)c1ccc2nc(C)sc2c1 (stereo not shown) [Example 1, 6-((7-Ethyl-6-azaspiro[3.4]octan-6-yl)sulfonyl)-2-methylbenzo[d]thiazole] | 1410 | 2820 |

The remaining lines, values ahead:

| IC50 [1] [nM] | IC50 [2] [nM] | SMILES |
| --- | --- | --- |
| 912 | 1700 | CC(C)C(=O)N1CCc2ccc(S(=O)(=O)N3CC4(CCC4)CC3C)cc2C1 (stereo not shown) [Example 30, 2-Methyl-1-(7-((7-methyl-6-azaspiro[3.4]octan-6-yl)sulfonyl)-3,4-dihydroisoquinolin-2(1H)-yl)propan-1-one] |
| 1510 | 1700 | CC1CC2(CCC2)CN1S(=O)(=O)c1ccc2c(c1)CN(C(=O)c1ccccc1)CC2 (single isomer, unassigned) [Example 28, (7-((7-methyl-6-azaspiro[3.4]octan-6-yl)sulfonyl)-3,4-dihydroisoquinolin-2(1H)-yl)(phenyl)methanone] |
| 708 | 1170 | CC(C)C(=O)N1CCc2ccc(S(=O)(=O)N3CC4(CCCC4)CC3C)cc2C1 (stereo not shown) [Example 100, 2-Methyl-1-(7-((3-methyl-2-azaspiro[4.4]nonan-2-yl)sulfonyl)-3,4-dihydroisoquinolin-2(1H)-yl)propan-1-one] |
| 1580 | 2340 | CC(C)C(=O)N1CCc2ccc(S(=O)(=O)N3CC4(CCC4)CC3C)cc2C1 (single isomer, unassigned) [Example 32, 2-methyl-1-(7-((7-methyl-6-azaspiro[3.4]octan-6-yl)sulfonyl)-3,4-dihydroisoquinolin-2(1H)-yl)propan-1-one] |
| 1410 | 3720 | CC1CC2(CCC2)CN1S(=O)(=O)c1cccs1 (single isomer, unassigned) [Example 104, 7-methyl-6-(thiophen-2-ylsulfonyl)-6-azaspiro[3.4]octane] |
| 1860 | 2820 | CCC1CC2(CCC2)CN1S(=O)(=O)c1ccc2c(c1)CN(C(=O)C(F)(F)F)CC2 (stereo not shown) [Example 33, 1-(7-((7-Ethyl-6-azaspiro[3.4]octan-6-yl)sulfonyl)-3,4-dihydroisoquinolin-2(1H)-yl)-2,2,2-trifluoroethan-1-one] |
| 1170 | 1580 | CCC1CC2(CCC2)CN1S(=O)(=O)c1cccs1 (single isomer, unassigned) [Example 71, 7-ethyl-6-(thiophen-2-ylsulfonyl)-6-azaspiro[3.4]octane] |
| 646 | 4070 | CC(C)C(=O)N1CCc2ccc(S(=O)(=O)N3CC4(CCC4)CC3C)cc2C1 (single isomer, unassigned) [Example 31, 2-Methyl-1-(7-((7-methyl-6-azaspiro[3.4]octan-6-yl)sulfonyl)-3,4-dihydroisoquinolin-2(1H)-yl)propan-1-one] |
